According to PMC12350473, “Pharmacokinetics and brain tissue distribution of Gastrodia elata extract in normal and cerebral ischemic rats: a comparative study” (Frontiers in Pharmacology, 2025):

Assays:
in vivo = settings: male, Sprague-Dawley, rat, po
[1] = Plasma pharmacokinetics of GEB constituents after oral GEB extract in normal and MCAO rats (UPLC-MS/MS, non-compartmental); settings: for AUC0-t / Tmax / AUC0−∞ / CLz/F / Cmax / MRT0-t / T1/2 / Vz/F: plasma
[2] = tested on: cerebral ischemia in rats; assay: Therapeutic effect of GEB extract on cerebral ischemia (MCAO): mNSS, body weight, survival, TTC staining; type: in vivo; settings: vs MCAO group, GEB low and high dose, nimodipine control
Protocol: High-dose GEB extract was prepared by adding 4.8 g of GEB extract in 40 mL of purified water to make a 120 mg/mL solution (calculated based on the human daily intake of 48 g of GEB).
The low dose of GEB was prepared by adding 2 g of GEB extract in 40 mL of purified water to make a 50 mg/mL solution (calculated based on the human daily intake of 20 g of GEB).
For preparing positive drugs, 2 nimodipine tablets (30 mg/tablet) were ground and added to 50 mL of purified water to make a 1.2 mg/mL solution (calculated based on the human daily intake of 120 mg of nimodipine).
After induction of deep anesthesia with pentobarbital (40 mg/kg), the rats were euthanized by cervical dislocation, followed by decapitation for brain removal. The brains were immediately flash-frozen in a freezer for 20 min. Then, the olfactory bulb and cerebellum were removed, the brain was cut into 6 coronal sections from anterior to posterior, stained with 1% TTC solution in the dark for 20 min at 37°C, and preserved in 4% paraformaldehyde for 30 min.
Rats were allocated into five groups: sham-operated (Sham), MCAO, low-dose GEB extract (GEB-L), high-dose GEB extract (GEB-H), and nimodipine control (NMDP). […] Longitudinal monitoring included body weight tracking and survival assessment, complemented by triphenyltetrazolium chloride (TTC) staining for cerebral infarction evaluation at study termination.

[3] = Brain tissue distribution of GEB constituents after oral GEB extract in normal and MCAO rats; type: in vivo
Protocol: An independent cohort (n = 6/group) was sacrificed under deep anesthesia (pentobarbital sodium 40 mg/kg, i. p.) at 0.5 h, 1 h, 3 h, and 12 h post-final dosing. Cerebral perfusion was performed with ice-cold normal saline via left ventricular cannulation to eliminate residual blood. Whole brains were rapidly excised, weighed, and homogenized in four volumes of phosphate-buffered saline (pH 7.4) using a tissue grinder (Precellys 24, Bertin Technologies, France). Homogenates were centrifuged at 12,000 × g for 15 min at 4°C. The supernatants were filtered through 0.22 μm PVDF membranes and aliquoted into polypropylene tubes.
Weigh 300 mg of rat brain tissue and add 3 volumes of PBS solution. […] Collect the supernatant to obtain the test tissue homogenate. Take 400 µL of the homogenate, add 50 µL of internal standard solution and 1,150 µL of methanol, then vortex-mix for 5 min.

[4] = parameters: method as in Tang et al., 2015; settings: ref Tang et al., 2015; cited from earlier work
[5] = MCAO rats, GEB extract 1,200 mg/kg oral gavage once daily for 3 days
[6] = MCAO rats, oral GEB extract 4.8 g/kg, n = 8
[7] = MCAO vs normal rats, range over PA, PB, PC, GAS, p < 0.05
[8] = normal rats, oral GEB extract 4.8 g/kg, n = 8
[9] = comparison among components after oral GEB extract

N[C@@H](CCC(=O)N[C@@H](CSCc1ccc(O)cc1)C(=O)NCC(=O)O)C(=O)O [4-HBG, S-(4-hydroxybenzyl) glutathione]
AUC0-t (in vivo; plasma, 1200 mg/kg): 120 ± 37 ng·h/mL | Tmax (in vivo; plasma, 1200 mg/kg): 2.3 ± 1.1 h | AUC0-t (in vivo; plasma, 4.8 g/kg): 113 ± 37.7 ng·h/mL | AUC(0-inf) (in vivo; plasma, 4.8 g/kg): 120 ± 37 ng·h/mL | CL/F (in vivo; plasma, 4.8 g/kg): 1090 mL/min/kg | Cmax (in vivo; plasma, 4.8 g/kg): 24.1 ± 8.4 ng/mL | MRT last (in vivo; plasma, 4.8 g/kg): 4.18 ± 0.51 h | Tmax (in vivo; plasma, 4.8 g/kg): 3.5 ± 0.93 h | Vd/F (in vivo; plasma, 4.8 g/kg): 212 ± 102 L/kg | half-life (in vivo; plasma, 4.8 g/kg): 2.27 ± 1.14 h | AUC0-t [1, 5]: 129 ± 53 ng·h/mL | Tmax ([1]; MCAO rats, GEB extract oral): 2.03 ± 0.2 h | AUC0-t [1, 6]: 124.8 ± 51.3 ng·h/mL | AUC0−∞ [1, 6]: 129.1 ± 52.8 ng·h/mL | CLz/F [1, 6]: 1050 ± 367 mL/min/kg | Cmax [1, 6]: 24.6 ± 11.2 ng/mL | MRT0-t [1, 6]: 4.37 ± 0.50 h | T1/2 [1, 6]: 2.03 ± 0.24 h | Tmax [1, 6]: 3.75 ± 0.71 h | Vz/F [1, 6]: 186.8 ± 73.0 L/kg

OCc1ccc(O)cc1 [HBA, 4-hydroxybenzyl alcohol]
concentration in rats (in words) ([1]; rats after oral GEB extract): very low

COCCOC(=O)C1=C(C)NC(C)=C(C(=O)OC(C)C)C1c1cccc([N+](=O)[O-])c1 (centres unmarked) [NMDP, nimodipine]
therapeutic effect on neurological deterioration, weight loss and infarction [2]: improved these outcomes

O=C(CC(O)(CC(=O)OCc1ccc(O[C@@H]2O[C@H](CO)[C@@H](O)[C@H](O)[C@H]2O)cc1)C(=O)O)OCc1ccc(O[C@@H]2O[C@H](CO)[C@@H](O)[C@H](O)[C@H]2O)cc1 [PC, Parishin C]
BBB penetration / cerebral distribution (in words) ([3]; rat, in vivo, po): superior BBB permeability | AUC0-t (in vivo; plasma, 4.8 g/kg): 56.4 ± 16.2 ng·h/mL | AUC(0-inf) (in vivo; plasma, 4.8 g/kg): 71.1 ± 18.5 ng·h/mL | CL/F (in vivo; plasma, 4.8 g/kg): 1740 mL/min/kg | Cmax (in vivo; plasma, 4.8 g/kg): 21.5 ± 5.8 ng/mL | MRT last (in vivo; plasma, 4.8 g/kg): 1.78 ± 0.3 h | Tmax (in vivo; plasma, 4.8 g/kg): 0.94 ± 0.5 h | half-life (in vivo; plasma, 4.8 g/kg): 1.84 ± 0.56 h | CLz/F increase in MCAO rats compared to controls [1, 7]: 1.4–2.0 fold | AUC0-t [1, 6]: 30.1 ± 9.6 ng·h/mL | AUC0−∞ [1, 6]: 41.5 ± 15.7 ng·h/mL | CLz/F [1, 6]: 3078 ± 1070 mL/min/kg | Cmax [1, 6]: 12.1 ± 4.6 ng/mL | MRT0-t [1, 6]: 1.68 ± 0.29 h | T1/2 [1, 6]: 2.35 ± 2.08 h | Tmax [1, 6]: 1.13 ± 0.35 h | Vz/F [1, 6]: 543.6 ± 442.8 L/kg | Vz/F [1, 8]: 266.7 ± 78.4 L/kg

OCc1ccc(O[C@@H]2O[C@H](CO)[C@@H](O)[C@H](O)[C@H]2O)cc1 [GAS, gastrodin]
BBB penetration / cerebral distribution (in words) [3, 9]: limited BBB penetration | cerebral concentration ([3]; normal rats, brain tissue, GEB extract oral): < 40 ng/mL | AUC0-t (in vivo; in vivo, 1200 mg/kg): 6620 ng·h/mL | Cmax (in vivo; in vivo, 1200 mg/kg): 6620 ng/mL | AUC0-t (in vivo; in vivo, 4.8 g/kg): 6620 ng·h/mL | AUC(0-inf) (in vivo; in vivo, 4.8 g/kg): 6690 ng·h/mL | CL/F (in vivo; in vivo, 4.8 g/kg): 38.3 mL/min/kg | Cmax (in vivo; in vivo, 4.8 g/kg): 6620 ng/mL | MRT last (in vivo; in vivo, 4.8 g/kg): 0.83 ± 0.06 h | Tmax (in vivo; in vivo, 4.8 g/kg): 0.31 ± 0.12 h | Vd/F (in vivo; in vivo, 4.8 g/kg): 2 ± 0.2 L/kg | half-life (in vivo; in vivo, 4.8 g/kg): 0.6 ± 0.07 h | AUC0-t [1, 5]: 4,836 ± 791 ng*h/mL | Cmax ([1]; MCAO rats, GEB extract 1,200 mg/kg oral once daily for 3 days): 4,646 ± 1,195 ng/mL | CLz/F increase in MCAO rats compared to controls [1, 7]: 1.4–2.0 fold | AUC0-t [1, 6]: 4,835.6 ± 790.9 ng*h/mL | AUC0−∞ [1, 6]: 4,914.0 ± 728.3 ng*h/mL | CLz/F [1, 6]: 53.3 ± 8.3 mL/min/kg | Cmax [1, 6]: 4,646.2 ± 1,195.9 ng/mL | MRT0-t [1, 6]: 0.88 ± 0.20 h | T1/2 [1, 6]: 0.58 ± 0.29 h | Tmax [1, 6]: 0.27 ± 0.16 h | Vz/F [1, 6]: 2.7 ± 1.6 L/kg

O=C(O)CC(O)(CC(=O)OCc1ccc(O[C@@H]2O[C@H](CO)[C@@H](O)[C@H](O)[C@H]2O)cc1)C(=O)O (some centres unmarked) [PE, Parishin E]
BBB penetration / cerebral distribution (in words) [3, 9]: moderate cerebral distribution | concentration at 12 h ([3]; male, Sprague-Dawley, rat, brain, oral, 1200 mg/kg, MCAO rats, 12 h post-final dosing): 4.25 ± 2.46 ng/g | AUC0-t (in vivo; plasma, 1200 mg/kg): 1310 ng·h/mL | AUC0-t (in vivo; plasma, 4.8 g/kg): 1210 ng·h/mL | AUC(0-inf) (in vivo; plasma, 4.8 g/kg): 1310 ng·h/mL | CL/F (in vivo; plasma, 4.8 g/kg): 697 mL/min/kg | Cmax (in vivo; plasma, 4.8 g/kg): 375 ± 45.5 ng/mL | MRT last (in vivo; plasma, 4.8 g/kg): 2.41 ± 0.33 h | Tmax (in vivo; plasma, 4.8 g/kg): 1.13 ± 0.35 h | Vd/F (in vivo; plasma, 4.8 g/kg): 78.6 ± 24.2 L/kg | half-life (in vivo; plasma, 4.8 g/kg): 1.82 ± 1.13 h | AUC0-t [1, 5]: 1,148 ± 530 ng*h/mL | AUC0-t [1, 6]: 1,107.5 ± 517.6 ng*h/mL | AUC0−∞ [1, 6]: 1,147.5 ± 530.4 ng*h/mL | Cmax [1, 6]: 324.9 ± 129.0 ng/mL | MRT0-t [1, 6]: 2.68 ± 0.76 h | T1/2 [1, 6]: 1.95 ± 1.03 h | Tmax [1, 6]: 1.25 ± 0.46 h | Vz/F [1, 6]: 113.9 ± 64.2 L/kg

O=C(CC(O)(CC(=O)OCc1ccc(O[C@@H]2O[C@H](CO)[C@@H](O)[C@H](O)[C@H]2O)cc1)C(=O)OCc1ccc(O[C@@H]2O[C@H](CO)[C@@H](O)[C@H](O)[C@H]2O)cc1)OCc1ccc(O[C@@H]2O[C@H](CO)[C@@H](O)[C@H](O)[C@H]2O)cc1 [PA, Parishin A]
BBB penetration / cerebral distribution (in words) [3, 9]: superior BBB permeability | average GAS molecules released per parent compound [4]: 1.5 | conversion efficiency of partial hydrolysis in vivo [4]: 50% | AUC0-t (in vivo; plasma, 4.8 g/kg): 148 ± 21.9 ng·h/mL | AUC(0-inf) (in vivo; plasma, 4.8 g/kg): 153 ± 23.5 ng·h/mL | CL/F (in vivo; plasma, 4.8 g/kg): 8150 mL/min/kg | Cmax (in vivo; plasma, 4.8 g/kg): 79.8 ± 9.8 ng/mL | MRT last (in vivo; plasma, 4.8 g/kg): 1.26 ± 0.09 h | Tmax (in vivo; plasma, 4.8 g/kg): 0.94 ± 0.18 h | half-life (in vivo; plasma, 4.8 g/kg): 0.74 ± 0.1 h | AUC0-t [1, 6]: 75.4 ± 29.3 ng·h/mL | AUC0−∞ [1, 6]: 85.9 ± 25.0 ng·h/mL | Cmax [1, 6]: 41.5 ± 18.5 ng/mL | MRT0-t [1, 6]: 1.33 ± 0.27 h | T1/2 [1, 6]: 1.41 ± 1.75 h | Tmax [1, 6]: 0.78 ± 0.31 h | Vz/F [1, 6]: 1706.9 ± 1891.6 L/kg | Vz/F [1, 8]: 518.7 ± 88.3 L/kg | CLz/F increase in MCAO rats compared to controls ([1]; rat, in vivo): 1.4–2.0 fold

O=C(O)CC(O)(CC(=O)OCc1ccc(O[C@@H]2O[C@H](CO)[C@@H](O)[C@H](O)[C@H]2O)cc1)C(=O)OCc1ccc(O[C@@H]2O[C@H](CO)[C@@H](O)[C@H](O)[C@H]2O)cc1 (some centres unmarked) [PB, Parishin B]
BBB penetration / cerebral distribution (in words) [3, 9]: superior BBB permeability | AUC0-t (in vivo; plasma, 4.8 g/kg): 215 ± 37.4 ng·h/mL | AUC(0-inf) (in vivo; plasma, 4.8 g/kg): 230 ± 50.9 ng·h/mL | CL/F (in vivo; plasma, 4.8 g/kg): 2790 mL/min/kg | MRT last (in vivo; plasma, 4.8 g/kg): 1.42 ± 0.13 h | Tmax (in vivo; plasma, 4.8 g/kg): 1 h | AUC0-t [1, 6]: 108.0 ± 48.8 ng·h/mL | AUC0−∞ [1, 6]: 123.7 ± 38.8 ng·h/mL | CLz/F [1, 6]: 5497 ± 1755 mL/min/kg | Cmax [1, 6]: 48.8 ± 22.9 ng/mL | MRT0-t [1, 6]: 1.63 ± 0.53 h | T1/2 [1, 6]: 2.16 ± 2.76 h | Tmax [1, 6]: 0.72 ± 0.31 h | Vz/F [1, 6]: 1,034.1 ± 1,468.2 L/kg | Cmax [1, 8]: 112.8 ± 22.8 ng/mL | T1/2 [1, 8]: 1.01 ± 0.42 h | Vz/F [1, 8]: 237.9 ± 98.4 L/kg | CLz/F increase in MCAO rats compared to controls ([1]; rat, in vivo): 1.4–2.0 fold
